{"source": "patent US20220362326A1", "about": "“INHIBITING ZD17-JNK I[…] A THERAPY FOR ACUTE MYOCARDIAL INFARCTION” (The University of British Columbia, priority 2019, published 2022)", "key": {"[1]": {"system": "primary cardiomyocyte culture", "assay": "Cell death assays in H2O2-treated primary cardiomyocyte culture", "type": "cell-based, Sprague Dawley rats", "details": "10 uM peptide, 30 min before 300 uM H2O2 (4 hrs) and during 12 hr recovery", "protocol": "Hearts were removed from P1-2 Sprague Dawley rats and cut into 1 mm^3 cubes. The heart tissue was then digested in the cell digestion buffer at 37° C. for 4 min and centrifuged at 200 rpm for 1 min to remove the supernatant. The pellet was digested in the cell digestion buffer again at 37° C. until it was fully digested and then centrifuged at 200 rpm for 1 min to remove the debris. The sample was mixed with FBS to neutralize trypsin and collagenase and then centrifuged at 1000 rpm for 5 min to remove the supernatant. Cardiomyocytes were isolated from the sample by differential adhesion and then cultured in plates in the cell culture medium. Primary cardiomyocyte cultures were maintained in the 37° C. incubator with 95% […] and 5% CO2 for 5 days before being used for experiments.\nCell death of primary cardiomyocyte culture was measured using a variety of assays. MTT and the activity of creatine kinase, lactate dehydrogenase, malondialdehyde and superoxide dismutase were measured using commercial kits and according to manufacturer's instructions. Cell apoptosis assays were conducted by treating primary cardiomyocyte culture with the Annexin V-FITC cytotoxicity kit, followed by flow cytometry (BD, FACSlalibur) to determine the apoptosis percentage.\nPrimary cardiomyocyte cultures were treated with 300 uM H2O2 for 4 hours to induce oxidative stress. Then, cardiomyocytes were placed back in the normal culture medium for 12 hours before cell death analysis. 30 min before H2O2 treatment and during the 12 hour-recovery period, some cardiomyocytes were treated with 10 uM NIMoEsh-Tat peptide."}, "rat model of AMI [2]": {"system": "rat model of AMI", "assay": "Rat model of AMI: TTC staining and measurement of heart infarct", "type": "in vivo, Sprague Dawley rats", "details": "rats, 20 mg/kg i.v. immediately after ligation, hearts removed four hours later; vs saline, P<0.01"}, "[3]": {"system": "pig model of transient AMI", "assay": "Pig model of transient AMI: transthoracic echocardiography", "type": "in vivo, Chinese Bama miniature pigs", "details": "pigs, 2 mg/kg i.v. 40 min after occlusion and 24 hours after reperfusion, day 30, vs saline"}, "[4]": {"system": "pig model of transient AMI", "assay": "Pig model of transient AMI: TTC staining and heart infarct", "type": "in vivo, Chinese Bama miniature pigs", "details": "pigs, 2 mg/kg i.v. twice, day 30, TTC staining; vs saline, P<0.01"}, "[5]": {"system": "pig model of transient AMI", "assay": "Pig model of transient AMI: histological analysis of hearts (H & E)", "type": "in vivo, Chinese Bama miniature pigs"}, "[6]": {"details": "pigs, 2 mg/kg i.v. twice; vs saline group", "source_text": "The heart rate (a), electrocardiogram (QRS duration (b), QRS voltage (c), T voltage (d) and ST voltage (e)), and body weight (f) were monitored before artery occlusion, after artery occlusion and after reperfusion. […] The NIMoEsh-Tat group: N=5; the saline group: N=5. Data are presented as mean±S.E.M.\nThe cardioprotective efficacy of the NIMoEsh-Tat peptide was also investigated in Chinese Bama miniature pigs. Transient AMI was induced in these pigs by occluding the left circumflex coronary artery for 1 hour, followed by blood reperfusion. Pigs received one i.v. injection of the NIMoEsh-Tat peptide (2 mg/kg) or saline 40 min after occlusion and another i.v. injection 24 hours after reperfusion. The pigs were evaluated for heart function on day 30 before they were sacrificed for histological analysis."}, "rat model of AMI [7]": {"system": "rat model of AMI", "assay": "Rat model of AMI: heart function (hemodynamic) measurement", "details": "rats, 20 mg/kg i.v. at 0, 24 and 48 hours after surgery, measured 4 weeks after last injection", "procedure": "Rats were subjected to AMI by ligation of the left anterior descending coronary artery as described previously (Yu, J. G. et al. Acta Pharmacol Sin 34, 1508-1514, doi:10.1038/aps.2013.147 (2013)). Briefly, rats were anesthetized with 100 mg/kg ketamine hydrochloride and 10 mg/kg diazepam by intraperitoneal injection and then received artificial ventilation using a respirator (Shanghai Alcott Biotech, China, ALC-V8) with a tidal volume of 20 mL and a respiratory rate of 60/min. The heart was exteriorized through the 4th intercostal space and the left anterior descending coronary artery was ligated using a 6-0 suture. Rats were placed back in their home cages after the incision was closed. Sham rats underwent the same protocol except without ligation of the coronary artery.\nHemodynamic assessments in rats were conducted as described by Yu et al. (Acta Pharmacol Sin 34, 1508-1514, doi:10.1038/aps.2013.147 (2013)). Briefly, rats were anesthetized with 1.25 g/kg 25% urethane and a polyethylene catheter connected to a pressure transducer (Powerlab 30, ADlnstruments) was inserted into the right carotid artery and then advanced into the left ventricle cavity. The mean heart rate, systolic blood pressure, left ventricular systolic pressure (LVSP), left ventricular end diastolic pressure (LVEDP), and maximal rates of pressure rise (+dp/dtmax) and decline (−dp/dtmax) were recorded for 30 min and then analyzed.\nRats receiving sham surgery were used as control."}, "[8]": {"details": "male pigs, 2 mg/kg, N number 5, day 30"}, "[9]": {"details": "male pigs, 2 mg/kg, N number 5, + = slight (almost invisible)"}, "[10]": {"details": "male pigs, 2 mg/kg, N number 5, ++ = mild (visible but very small)"}}, "note": "Ends that are not written are not given here.", "data": [{"sequence": "WAAYRTHSVDYGRKKRRQRRR [NIMoEsh-Tat, WAAYRTHSVD-YGRKKRRQRRR]", "values": [{"measurement": "H2O2-induced cell death, cell apoptosis assay (FIG. 1b)", "setting": "[1]; Annexin V-FITC, flow cytometry", "result": "effectively reduced H2O2-induced cell death"}, {"measurement": "CK activity in the culture medium (FIG. 1c)", "setting": "[1]; vs H2O2 group", "result": "did not fully rescue H2O2-induced increase of CK activity, there was a trend of decreased CK activity"}, {"measurement": "H2O2-induced cell death, MTT assay (FIG. 1a)", "setting": "[1]; vs H2O2 group", "result": "effectively reduced H2O2-induced cell death"}, {"measurement": "LDH activity in the culture medium (FIG. 1e)", "setting": "[1]; vs H2O2 group", "result": "effectively reduced H2O2-induced cell death"}, {"measurement": "MDA activity in cultured cells (FIG. 1d)", "setting": "[1]; vs H2O2 group", "result": "effectively reduced H2O2-induced cell death"}, {"measurement": "SOD activity in cultured cells (FIG. 1f)", "setting": "[1]; vs H2O2 group", "result": "effectively reduced H2O2-induced cell death"}, {"measurement": "percentage of heart tissue infarct after AMI (FIG. 2a-b)", "setting": "rat model of AMI [2]", "result": "significantly reduced"}, {"measurement": "stroke volume (SV, FIG. 3c)", "setting": "[3]; P<0.001", "result": "rescued AMI-induced function deficits"}, {"measurement": "ejection fraction (EF, FIG. 3d)", "setting": "[3]; P<0.05", "result": "rescued AMI-induced function deficits"}, {"measurement": "volume of AMI-induced heart infarct (FIGS. 3e and 3f)", "setting": "[4]", "result": "reduced the volume of AMI-induced heart infarct"}, {"measurement": "Atrial fibrillation, Total (number of pigs)", "setting": "[5]; [8]", "result": 5}, {"measurement": "Bleeding, Total (number of pigs)", "setting": "[5]; [8]", "result": 4}, {"measurement": "Granuloma, Total (number of pigs)", "setting": "[5]; [8]", "result": 1}, {"measurement": "Inflammation, Total (number of pigs)", "setting": "[5]; [8]", "result": 4}, {"measurement": "Necrosis, Total (number of pigs)", "setting": "[5]; [8]", "result": 4}, {"measurement": "Pericarditis, Total (number of pigs)", "setting": "[5]; [8]", "result": 0}, {"measurement": "Atrial fibrillation, + (number of pigs)", "setting": "[5]; [9]", "result": 2}, {"measurement": "Bleeding, + (number of pigs)", "setting": "[5]; [9]", "result": 4}, {"measurement": "Granuloma, + (number of pigs)", "setting": "[5]; [9]", "result": 1}, {"measurement": "Inflammation, + (number of pigs)", "setting": "[5]; [9]", "result": 4}, {"measurement": "Pericarditis, + (number of pigs)", "setting": "[5]; [9]", "result": 0}, {"measurement": "Atrial fibrillation, ++ (number of pigs)", "setting": "[5]; [10]", "result": 2}, {"measurement": "Inflammation, ++ (number of pigs)", "setting": "[5]; [10]", "result": 0}, {"measurement": "Necrosis, ++ (number of pigs)", "setting": "[5]; [10]", "result": 0}, {"measurement": "Atrial fibrillation, +++ (number of pigs)", "setting": "[5]; male pigs, 2 mg/kg, N number 5, +++ = moderate (visible and quantifiable)", "result": 1}, {"measurement": "Necrosis, grade not given (number of pigs)", "setting": "[5]; male pigs, 2 mg/kg, N number 5, grade cell empty, line above ++", "result": 4}, {"measurement": "Pericarditis, grade not given (number of pigs)", "setting": "[5]; male pigs, 2 mg/kg, N number 5, grade cell empty, line below +", "result": 0}, {"measurement": "AMI-induced pathology observed under microscope, summary", "setting": "[5]; pigs, 2 mg/kg i.v. twice, day 30, vs saline controls", "result": "much less AMI-induced pathology"}, {"measurement": "fibrillation in pig heart, H & E image (FIG. 3g)", "setting": "[5]; pigs, 2 mg/kg i.v. twice, day 30, vs saline-treated pig heart", "result": "less fibrillation"}, {"measurement": "body weight recovery after AMI (FIG. 4)", "setting": "[6]", "result": "same level of body weight recovery"}, {"measurement": "+dp/dtmax, maximal rate of pressure rise (FIG. 2g)", "setting": "rat model of AMI [7]; vs saline", "result": "rescued heart function after AMI"}, {"measurement": "left ventricular systolic pressure (FIG. 2e)", "setting": "rat model of AMI [7]; vs saline", "result": "rescued heart function after AMI"}, {"measurement": "−dp/dtmax, maximal rate of pressure decline (FIG. 2h)", "setting": "rat model of AMI [7]; vs saline", "result": "rescued heart function after AMI"}, {"measurement": "heart rate (FIG. 2c)", "setting": "rat model of AMI [7]; vs sham", "result": "neither saline or NIMoEsh-Tat peptide changed"}, {"measurement": "systolic blood pressure (FIG. 2d)", "setting": "rat model of AMI [7]; vs sham", "result": "neither saline or NIMoEsh-Tat peptide changed"}]}]}
